“Also recorded” adds a separate entry of the source. Where a SMILES comes first, the peptide text is derived from it. [ ]: non-standard residue; d: D form. 2Nal = N[C@@H](Cc1ccc2ccccc2c1)C(=O)O
Assays:
Recombinant PLA2G1B = target: T1, Recombinant PLA2G1B (Homo sapiens, UniProt P04054); test: Bioassay: recombinant PLA2GIB-mediated inhibition of IL-7-induced nuclear translocation of phospho STAT5 in CD4 T cells (STED microscopy); format: cell-based
T1 construct: sPLA2GIB was produced in E. Coli; Inclusion bodies were solubilized in urea and afterwards renatured; made in house; host or cells: E. coli
Description: FIG. 1: Peptide I inhibits sPLA2G1B: Recombinant PLA2G1B (75 nanoM) was first exposed 30 mn to indicated concentrations of Peptide I. The mixture was then applied in the bioassay described in Materials and Methods. % inhibition of IL-7-induced nuclear translocation of phospho STAT5 was measured by STED microscopy. The results of two experiments are shown.
FIG. 2: Calculation of IC50 of Peptide I: Experimental data were analyzed by Prism software in order to precisely calculate the IC50.
sPLA2GIB was produced in E. Coli. Inclusion bodies were solubilized in urea and afterwards renatured. sPLA2GIB was further purified by HPLC. Homogeneity of the preparations was verified by MassSpectrometry (Malditoff). The specific activity of the enzyme was always measured and compared to standard preparations.
(§1) Inhibition of IL-7-induced phosphorylated STAT5 nuclear translocation (NTpSTAT) was measured as follows: VP plasma (5 or 10%) was first incubated with purified HD CD4 T cells (20 min) before stimulation by IL-7 (2 nM, 15 min.). Cells were then plated on polylysine coated glass slides before fixation by PFA (1.5%) and permeabilization by methanol (90% at −20° C.). pSTAT5 was then stained by rabbit anti-STAT5 and labeled with goat anti-rabbit-Atto642. The cells were analyzed by pulsed STED microscopy and the number of nuclei expressing pSTAT5 were counted.
We first investigated the effects of different doses of Peptide I on the biological activity of recombinant PLA2GIB as tested in the bioassay described in Materials and Methods. […] The experiment was repeated twice. From the experimental data we derived the corresponding theoretical curve that gives the IC50. For Peptide I, IC 50 is about 4.9 microM (FIG. 2).

[1] = target: T2, PLA2 GIB contained in the plasma of viremic patients (Homo sapiens, UniProt P04054); test: Bioassay: inhibition of IL-7-induced NTpSTAT5 in healthy donor CD4 T cells by plasma/sera of viremic HIV-infected patients; format: cell-based
T2 construct: CD4 lymphocytes purified from healthy donors were exposed to sera from viremic HIV-infected patients at 1% or 3% dilution; from tissue; host or cells: plasma/sera of viremic HIV-infected patients
Description: FIG. 3: Peptide I restores the activity of CD4 lymphocytes: CD4 lymphocytes purified from healthy donors were exposed to sera from viremic HIV-infected patients at 1% or 3% dilution. […] Five sera were tested and the results are given as the median+/−SD.
Viremic patients (VP) included in the study had been HIV-positive for more than one year. […] All blood samples from VP were drawn at Hôpital Bicêtre or Centre Hospitalier de Gonesse.
as §1
We have shown that PLA2 GIB contained in the plasma of viremic patients induces a blockade of IL-7-induced nuclear translocation of phospho STAT5 (NT pSTAT5). […] Here we tested the effects of Peptide I on the capacity of the sera from VP to block IL-7-induced NTpSTAT5.
The effect of plasma from various HIV viremic patients (at least 5) were titrated on the inhibition of IL-7-induced NTpSTAT5. […]

T2 sequence (P04054 23-148): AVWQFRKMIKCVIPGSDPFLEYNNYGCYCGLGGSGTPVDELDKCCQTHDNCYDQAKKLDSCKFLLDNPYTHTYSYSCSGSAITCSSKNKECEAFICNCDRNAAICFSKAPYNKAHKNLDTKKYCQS
T1 sequence (P04054 23-148): as above

inhibitory effect on recombinant PLA2GIB activity (Recombinant PLA2G1B; 5 microM Peptide I): effective
inhibitory effect on recombinant PLA2GIB activity (Recombinant PLA2G1B; 10 microM Peptide I): very strong
IC50 (Recombinant PLA2G1B; recombinant PLA2G1B 75 nanoM exposed 30 mn to Peptide I, calculated with Prism from two experiments, read-out: IC50 (inhibition of recombinant PLA2GIB biological activity)): ~4.9 µM
maximum inhibition (plateau) with the recombinant enzyme (Recombinant PLA2G1B; recombinant pure enzyme in serum free buffer): around 80%
inhibition achieved when the plasma is used ([1]; plasma of viremic patients): around 100%
Compound: CC(C)C[C@@H]1NC(=O)[C@H](Cc2ccc3ccccc3c2)NC(=O)[C@H](CCCNC(=N)N)NC(=O)[C@H](Cc2ccc3ccccc3c2)NC(=O)[C@H](CO)NC1=O [Peptide I, cyclic(2-NaphthylAla-Leu-Ser-2-NaphthylAla-Arg)] (cyclo([2Nal]LS[2Nal]R); ring closure inferred)
reversal of sera-induced inhibition of IL-7-induced nuclear translocation of pSTAT5 ([1]; 15 microM Peptide I, sera from viremic HIV-infected patients at 1% or 3% dilution, five sera): totally reversed this inhibition; also recorded: completely reverted the activity of the sera
